Patent US7217688B2, “Methods and compositions for derepression of IAP-inhibited caspase” (The Burnham Institute, priority 2005, dated 2007)
Square brackets hold non-standard residues; d marks the D form. Side chains are listed from the residue outwards. Peptide text beside a SMILES is read from it. * marks the point of attachment. X1 = CCN(CC)c1ccc2c(-c3ccc(S(=O)(=O)*)cc3S(=O)(=O)O)c3ccc(=[N+](CC)CC)cc-3oc2c1; d2Nal = N[C@H](Cc1ccc2ccccc2c1)C(=O)O; Ahx = NCCCCCC(=O)O

Legend:
Jurkat cells = assay: caspase-3 and caspase-7 activity in whole Jurkat cells; type: cell-based; conditions: 8 μM, 20 hours
XIAP-inhibited caspase-3 = biological target: T1, XIAP-inhibited caspase-3 (Homo sapiens, UniProt P98170); assay: caspase derepression assay (XIAP-inhibited caspase-3, Ac-DEVD-AFC hydrolysis); type: biochemical; conditions: for activity in the derepression assay using full length XIAP: active / inactive
T1 construct: in the derepression assay using full length XIAP; made in house; host or cells: bacteria
Experimental: (§1) Caspase activity was assayed by release of 7-amino-4-trifluoromethyl-coumarin (AFC) from Ac-DEVD-AFC synthetic peptide using a Molecular Devices Spectromax 340 (see Zhou et al., J. Biol. Chem. 272:7797–7800 (1997)). […] The ratio of Vmax for hydrolysis of Ac-DEVD-AFC in the presence and absence of the candidate mixture was calculated and used to identify those that contain an agent that derepresses an IAP-inhibited caspase.
(§2) Screening of each mixture from the DCR390, TPI 1239 or TPI 1328 library, respectively, using the above described assay was carried out as follows. Each mixture was aliquoted in a 25 microliter volume and in duplicate to a well of a 96 well microtiter plate. […] Fluorescence of liberated AFC was immediately detected from each well for 30 minutes at 30 second intervals. The Vmax for hydrolysis of AC-DEVD-AFC from each well was measured using the softmax software package. Results of the screen for the DCR390 library are shown in Table I. Sets of mixtures having the same position fixed with different respective amino acids are arranged in 6 sections identified with the position number. […] The mixture in each section are arranged in descending order according to apparent velocity in the second column.
Briefly, recombinant proteins were produced in bacteria and purified as described, for example, in Deveraux et al., Nature 388:300–304(1997). […] Generation of fluorogenic AFC (7-amino-4-trifluoromethyl coumarin) product was measured with a spectrofluorometric plate reader in kinetic mode for 30 minutes at 37° C. using excitation and emission wavelengths of 405 nm and 510 nm, respectively. […] Control reactions lacked XIAP, and all assays were conducted in the linear range of substrate hydrolysis to avoid substrate depletion artifacts.

[1] = test system: PPC1 prostate cancer cells; assay: PPC1 tumor xenograft; type: in vivo, Balb/C nu-/nu- mice; conditions: 30 mg/kg i.p. for 2 or 3 days
Excerpt: Similar data was obtained using TPI 1396-22 (see FIG. 33a and 33b). […] In FIG. 33b, the mice were sacrificed at day 19 and the tumors excised and weighed.

[2] = test system: mouse embryo fibroblasts (MEFs), human prostate epithelial cells, peripheral blood lymphocytes (PBLs); assay: normal cell viability (annexin-V, 2 days); type: cell-based; set-up: dose or concentration left out as unconfirmed
Experimental: After 2 days, cell viability was assessed by annexin-V staining.

[3] = test system: U937 leukemia cells over-expressing XIAP; assay: U937-Neo versus U937-XIAP cell death (Annexin V); type: cell-based; conditions: 5 or 8 μM, 20 hours
Experimental: After incubation, cells were washed, stained with FITC-conjugated Annexin V antibody and propidium iodide, and fluorescence measured by flow cytometry as described in Example XI.
Equal amounts of protein were subjected to SDS-PAGE (4–20% gradient gels from ISC BioExpress, Kaysville, Utah.), followed by transfer to nitrocellulose membranes. […] Secondary antibodies consisted of horseradish peroxidase (HRP)-conjugated goat anti-mouse IgG (Bio-Rad, Hercules, Calif.). Detection was performed by the enhanced chemiluminescence (ECL) method. […] Lysates were prepared from the cells, normalized for total protein content and analyzed by SDS-PAGE immunoblotting using antibodies specific for XIAP, caspase-3, and β-actin.

[4] = biological target: XIAP binding to the SMAC peptide (Homo sapiens, UniProt P98170); assay: SMAC competition / SMAC binding assay (biotinylated SMAC 7-mer, GST-XIAP)
Experimental: Peptide compounds containing unnatural amino acids in the 792 series, 792-33 and 792-35 (see FIG. 12 and 20 and Example XI), and an active compound in the TPI 1332 series, TPI 1332-69, were tested for binding activity in the SMAC binding assay as described above in Example X. For this assay, biotinylated SMAC 7-mer peptide (50 ng) was bound to 96 well plates coated with NeutrAvidin (Pierce, Rockford, Ill.) at 1 mg/ml in 100 μl per well of 50 mM HEPES pH 7.4, 100 mM NaCl, 1 mM EDTA, 10% sucrose, 0.1% CHAPS, 10 mM DTT.

[5] = test system: Du145 prostate cancer cells; assay: sensitization to anticancer drugs (MTT assay); type: cell-based; conditions: 10 μM, 48 hours
Experimental: The percentage of viable cells relative to control was determined using a MTT (3-(4,5-dimethylthiazolyl-2)-2,5-diphenyltetrazolium bromide) assay which is commercially available (Sigma). […] Similar results were obtained for PPC1 (FIG. 31b) and PC3 (FIG. 31c) prostate cancer cells treated with VP16, DOX, or TAXOL, and for H460 (FIG. 31d) lung cancer cells treated with VP16 or DOX.

Jurkat leukemia cells = assay: Jurkat cell death (Annexin V / propidium iodide flow cytometry); type: cell-based
Experimental: The following assay was used to test the ability of individual compounds from the TPI 1396 and TPI 1391 libraries to induce apoptosis of cultured tumor cell lines. Each of the compounds listed in Table IX was individually added to Jurkat leukemia cells (6.25×10^5 cells/mL) in RPMI containing 2.5% FBS at various concentrations for 20 hours. After incubation, cells were washed and stained with FITC-conjugated Annexin V antibody and propidium iodide (Biovision; Mountain View, Calif.). Cells were incubated for 20 minutes at room temperature in the dark and fluorescence was measured by flow cytometry (FACScan, Immunocytometry system; Becton-Dickinson; San Jose, Calif.). Cells staining positive for Annexin V were deemed non-viable.

[6] = test system: normal bone marrow mononuclear cells; assay: normal bone marrow cell toxicity (Annexin V); type: cell-based; conditions: 5 μM, 20 hours
Experimental: After incubation, cells were washed, stained with FITC-conjugated Annexin V antibody and propidium iodide, and fluorescence measured by flow cytometry as described above.

[7] = test system: PC-3 and LNCaP prostate cancer cell lines; assay: clonogenic survival (colony formation) assay; type: cell-based; conditions: 10 μM
Experimental: In addition to short-term cytotoxicity assays, selected polyphenylurea compounds were tested for effects on clonogenic survival of cancer cells in colony formation assays, which can be considered a more stringent test of anticancer activity.

HeLa cells = assay: apoptosis of transfected HeLa cells (Annexin V); type: cell-based; conditions: 5 μM, 20 hours
Experimental: In addition to transfecting the cells with full-length XIAP, analogous assays were performed with HeLa cells transfected with plasmids over-expressing various XIAP mutants. […] The mutant was produced by site-directed mutagenesis to modify positions 148, 219, 223, 314 and 323 to contain alanine. HeLa cells were also transiently transfected with plasmids encoding Bcl-XL, an anti-apoptotic protein that operates upstream of caspases to suppress Cytochrome C release from mitochondria. HeLa cells (2.5×10^5) were seeded onto six well plates in 2 mL DMEM H21 with 5% FBS. After 24 hrs, cells were transfected (Gene Porter) with plasmids. […] Both floating and adherent cells were then recovered from cultures, washed, and apoptosis was determined by Annexin V staining using flow cytometry.
Bcl-XL over-expression did afford resistance to traditional anticancer drugs such as etoposide and CrmA (a caspase-8 inhibitor), and protected cells from apoptosis induced by TRAIL, confirming that these anti-apoptotic proteins were functional in these experiments.

[8] = test system: PPC1, ALVA31, DU145 and HeLa cells; assay: sensitization to TRAIL-induced apoptosis; type: cell-based; conditions: 1 µM
Experimental: Similar tests of the effects of polyphenyl urea compounds on apoptosis induction by the biological agent TRAIL, an apoptosis inducing member of the Tumor Necrosis Factor (TNF) family were also performed.

[9] = test system: HCT-116 colon cancer cells; assay: HCT-116 tumor xenograft; type: in vivo, Balb/C nu-/nu- mice; conditions: 30 mg/kg i.p. on days 6, 7 and 8
Experimental: Additional experiments were performed using a different tumor xenograft model. HCT-116 colon cancer cells (2.5 million) were injected subcutaneously in the flanks of female Balb/C nu−/nu− mice. […] Tumor volume was measured by external calipers at least twice weekly for 19 days (see FIG. 32c). On day 19, the mice were sacrificed and the tumors were excised and weighed.

[10] = test system: tumor cells with antigen-specific T cells; assay: CTL-mediated lysis (51Cr release); type: cell-based; conditions: 10 μM, 4 hours
Experimental: After 4 hours, ^51Cr release was measured. Data shown in FIG. 39 are expressed as a percentage of total release induced by detergent lysis, and data represent mean±standard deviation of duplicate determinations.

[11] = mouse, in vivo
Experimental: Selected polyphenylurea compounds were tested for anti-tumor activity in vivo, using human tumor xenografts grown in immunocompromised mice. First, it was determined what doses of polyphenylurea compounds were tolerated by mice. […] For tumor xenograft studies, PPC1 prostate cancer cells (2.5 million) were injected subcutaneously into the flanks of 8 male Balb/C nu−/nu− mice. […] Tumor growth was monitored at least twice weekly by external calipers (see FIG. 32b). At 24 days after compound injections, mice were sacrificed and tumors were excised and weighed (see FIG. 32b, inset).
Sera were assayed for BUN, bilirubin, ALT and AST.

tumor tissue = assay: in vivo caspase activation in tumors (immunoblot, immunohistochemistry); set-up: species or system Balb/c mice; conditions: 30 mg/kg i.p. for 3 successive days
[12] = test system: NCI panel of 60 tumor cell lines; assay: NCI panel of 60 tumor cell lines, protein-based colorimetric assay; set-up: species or system human; conditions: 48 hours
Experimental: Selected polyphenylurea compounds were tested on the National Cancer Institute (NCI) panel of 60 tumor cell lines (see FIG. 28a and FIG. 29).

stability in human serum = type: in vitro ADME; conditions: expected
His-BIR2 of XIAP = assay: rhodamine fluorescence polarization competitive binding assay; conditions: titrated with TPI 1396-11; labeled compound 2.4 μM, His-BIR2 79 μM; read-out: IC50 of the labeled candidate compound
Experimental: In a second assay, competitive binding of candidate derepressors of IAP inhibited caspase was measured by a fluorescence polarization procedure. Fixed quantities of rhodamine-labeled candidate compound and IAP fragment were titrated against varying concentrations of a known IAP-binding compound. […] Polarization (millipolars or mP) was plotted against log concentration (log []) of the known IAP-binding compound. A plot of mP versus log concentration of the IAP-binding compound was then used to calculate the binding constant for the candidate compound-the IAP fragment pair.
Plates were incubated for one hour at room temperature, after which polarization of rhodamine was read in an LJL Analyst HT® multimode reader with excitation at 530 nm and emission at 580 nm.

caspase-3 = biological target: T2, caspase-3 (Homo sapiens, UniProt P42574); assay: caspase-3 activity without XIAP (control arm of derepression assay); type: biochemical; conditions: TPI 1239 library; ratio, no XIAP
T2 construct: made in house; host or cells: bacteria
Experimental: as §1, §2

T1 sequence (P98170 whole entry): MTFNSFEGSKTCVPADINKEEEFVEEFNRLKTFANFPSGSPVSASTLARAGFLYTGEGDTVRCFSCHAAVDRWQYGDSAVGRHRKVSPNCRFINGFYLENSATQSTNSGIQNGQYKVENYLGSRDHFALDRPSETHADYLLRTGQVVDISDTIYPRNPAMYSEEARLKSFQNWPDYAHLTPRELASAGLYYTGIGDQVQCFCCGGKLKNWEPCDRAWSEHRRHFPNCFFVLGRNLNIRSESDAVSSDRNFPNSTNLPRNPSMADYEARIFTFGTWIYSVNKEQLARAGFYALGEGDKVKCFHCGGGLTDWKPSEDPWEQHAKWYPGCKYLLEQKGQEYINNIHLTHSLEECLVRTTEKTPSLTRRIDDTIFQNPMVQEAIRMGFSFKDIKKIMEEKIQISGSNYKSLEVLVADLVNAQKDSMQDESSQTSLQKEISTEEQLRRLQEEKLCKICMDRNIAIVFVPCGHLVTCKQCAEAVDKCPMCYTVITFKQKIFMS
T2 sequence (P42574 29-175 limits assumed): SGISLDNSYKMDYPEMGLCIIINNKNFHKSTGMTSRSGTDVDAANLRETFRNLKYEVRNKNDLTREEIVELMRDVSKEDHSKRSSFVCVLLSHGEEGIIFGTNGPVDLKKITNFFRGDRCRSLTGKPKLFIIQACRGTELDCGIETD
T2 sequence (P42574 176-277 limits assumed): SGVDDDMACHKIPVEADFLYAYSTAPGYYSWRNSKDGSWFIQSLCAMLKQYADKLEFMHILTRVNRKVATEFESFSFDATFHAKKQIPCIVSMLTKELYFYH
XIAP binding to the SMAC peptide, sequence (P98170 whole entry): as the sequence (P98170 whole entry) above

COc1ccc(CCN2CCC[C@@H]2CN(C(=O)Nc2ccccc2)[C@@H](CNC(=O)Nc2ccccc2)CC2CCCCC2)cc1 [TPI 1396-34]
caspase activation (Jurkat cells): induced caspase activation | activity in the derepression assay using full length XIAP (XIAP-inhibited caspase-3): active | tumor growth / tumor size [1]: reduced tumor size | increase of percentage cell death above background [2]: less than one-fold | effect of XIAP over-expression on apoptosis induction [3]: over-expression of XIAP rendered U937 cells resistant | competition with XIAP binding to the SMAC peptide [4]: does not compete | effect on cytotoxicity of VP16, DOX and TAXOL [5]: significantly increased dose-dependent cytotoxicity | time to half-maximal killing (Jurkat leukemia cells; 10 μM): approximately 12 hours | time to maximum killing (Jurkat leukemia cells; 10 μM): about 24 hours | apoptosis with 100 μM zVAD-fmk (Jurkat leukemia cells; 20 hours): suppressible | toxicity to normal bone marrow cells [6]: little toxicity | colony formation [7]: < 5 % of control | apoptosis in HeLa cells over-expressing Bcl-XL (HeLa cells): not blocked | apoptosis in HeLa cells over-expressing full-length XIAP (HeLa cells): protected | apoptosis in HeLa cells transfected with a control vector (HeLa cells): induced apoptosis | effect on TRAIL-induced apoptosis [8]: sensitized | tumor size [9]: tumor size was reduced | effect on CTL-mediated lysis [10]: sensitizes tumor targets to CTL-mediated lysis

CN(CCCCC(CNC(=O)Nc1ccccc1)N(CC1CCCN1CCCCC1CCCCC1)C(=O)Nc1ccccc1)C(=O)Nc1ccccc1 (stereo not shown) [TPI 1396-12]
Activity (relative caspase-3 activity, ratio of Vmax with compound to Vmax of caspase-3 and XIAP controls) (XIAP-inhibited caspase-3; Table X, R2 = L-Proline): 2.7 | activity in the derepression assay using full length XIAP (XIAP-inhibited caspase-3): active | % nonviable cells (Jurkat leukemia cells; 1 µM): 15% | % nonviable cells (Jurkat leukemia cells; 5 µM): 95% | % nonviable cells (Jurkat leukemia cells; 10 μM): 89% | % nonviable cells (Jurkat leukemia cells; 25 µM): 89% | % nonviable cells (Jurkat leukemia cells; 50 µM): 85% | maximum tolerated dose [11]: 200 to 400 mg/kg | caspase activation in tumors in vivo (tumor tissue): induce caspase activation in tumors in vivo | tumor proliferation (surrogate marker PCNA) (tumor tissue): no effect on tumor proliferation | average LD50 for the 60 cell lines [12]: 7.6 ± 12 µM | median LD50 for the 60 cell lines [12]: 6 µM | stable in human serum (stability in human serum): greater than 48 hours

CCN(CC)c1ccc2c(-c3ccc(S(=O)(=O)NCCCCCC(=O)NCCCC[C@H](NC(=O)[C@@H](Cc4ccc5ccccc5c4)NC(=O)[C@H](Cc4c[nH]c5ccccc45)NC(=O)[C@H](Cc4c[nH]c5ccccc45)NC(=O)[C@H](C)N)C(N)=O)cc3S(=O)(=O)O)c3ccc(=[N+](CC)CC)cc-3oc2c1 [TPI 1566-11] (H-AWW[d2Nal]K([Ahx-X1])-NH2)
IC50 (His-BIR2 of XIAP): 10 µM

CC[C@H](C)[C@H](NC(=O)[C@@H]1CCCN1C(=O)[C@@H](NC(=O)[C@H](C)N)C(C)C)C(=O)N[C@@H](C)C(=O)N[C@@H](CCC(N)=O)C(=O)N[C@@H](CCCCN)C(N)=O [SMAC, H-Ala-Val-Pro-Ile-Ala-Gln-Lys-NH2, reference compound] (H-AVPIAQK-NH2)
Vmax(mis + casp3 + XIAP) Vmax(casp3 + XIAP) (XIAP-inhibited caspase-3; TPI 1239 library, ratio in the presence of XIAP): 3.8 ± 1.7 | Vmax(mix + casp3) Vmax(casp3) (caspase-3): 0.8 ± 0.0
